Data set [1] has as its system GTP-binding proteins in HEK 293T cell lysates. Nature of the data set: In-gel fluorescence imaging of HEK 293T cell lysate labeled with the GTP probes. As to the method: Appropriate amount cells were incubated on ice for 30 min in 1% lysis buffer (1% Triton X-100, 50 mM HEPES (pH 7.4), 150 mM NaCl, supplemented with phosphatase inhibitor A, phosphatase inhibitor B, and protease inhibitor right before use) at 5-10 times the cell volume. Vortexing for 5 seconds every 10 minutes. The cell lysates were centrifuged at 12,000 rpm at 4° C. for 30 min, and the supernatants were passed through an Amersham NAP-5 column to remove endogenous nucleosides. The proteins were quantified using a Bradford protein assay kit. Approximately 100 μg protein was diluted with 0.1% lysis buffer (0.1% Triton X-100, 50 mM HEPES, 150 mM sodium chloride). To the solution was added 1 mM magnesium chloride, the GTP probe and competitors to designated concentrations. The final volume for the reaction was 100 μL and the final protein concentration was […]. After incubated on ice, the solution was irradiated with 365-nm UV light for 30 min. To the solution were added freshly prepared tris-(2-carboxyethyl)phosphine (TCEP) until its concentration reached 1 mM, and a CuAAC reaction mixture to reach a final concentration of 1 mM CuSO4, 0.1 mM tris[(1-benzyl-1H-1,2,3-triazol-4-yl)methyl]amine (TBTA), and 0.1 mM rhodamine β-PEG3-azide. The mixture was incubated at room temperature for 2 hrs and then precipitated in a solution of chloroform: methanol: water (4:3:1, v/v). After washing with cold methanol and air dried, the protein pellet was dissolved in 30 μL 4% SDS buffer (4% SDS, 50 mM HEPES (pH 7.4), 150 mM NaCl, 50 mM Trolamine). The protein concentration was determined using a BCA protein assay kit. A solution of approximately 20 μg proteins was added 4×loading buffer (0.25M Trometamol, pH=6.8, 4% SDS, 40% Glycerol, 0.02% bromophenol blue, add 200 μL 2-Mercaptoethanol to 800 μL buffer right before use), boiled at 95° C. for 5 min and loaded onto an SDS-PAGE gel (4% stacking gel, 10% separating gel). Then perform SDS-PAGE separation at a constant voltage of 90 V for about 110 minutes. At the end of electrophoresis, cut the separation gel and imaged with an Amersham Imager 600 (GE Healthcare) at 520 nm. The gel was then stained with Coomassie Brilliant Blue staining solution (0.1% Coomassie brilliant blue, 10% acetic acid, 50% methanol) for 30 min and destained with destaining solution (10% acetic acid, 30% methanol) to remove background color.

The nature of data set [2]: Stability analysis of the probes under three pH conditions with HPLC. As to conditions: acidic condition with trifluoroacetic acid (pH=3), 0.4 mM probe, 37° C. It counts as physicochemical. As to the method:
Probes were incubated with 0.4 mM final concentration in different buffer at 37° C. for different time, and 10 μL of solution was taken out at each time point for HPLC analysis. A analytical column (Welch, Ultimate XB-C18, 5 μm, 4.6×250 mm) was used for the analysis, and untreated probes were used as controls. The mobile phase A was 50 mM […] (TEAA) buffer (pH=8), the mobile phase B was 50 mM TEAA in 30% ACN, the flow rate was 1 mL/min, the detection wavelength was 252 nm, and the column temperature was 30° C. Gradient elution conditions were as follows: 0-5 minutes, 5% B; 5-10 minutes, 5-30% B; 10-30 minutes, 30-40% B; 30-35 minutes, 40-100% B; 35-40 minutes, 100% B; 45-50 minutes, 5% B.

Data set [3] deals with GTP-binding proteins in HEK 293T cell lysates. Briefly: Proteomic LC-MS/MS analysis of HEK 293T cell lysate labeled with GTP probes. Also noted: species or system human. As to the method: Under optimized conditions, HEK 293T cell lysates were labeled using the GTP photoaffinity probes. Peptide samples were prepared via the On-Beads enzymatic digestion method for proteomic study. Approximately 1 mg of proteins was labeled with 0.1 mM GTP probe and irradiated with 365-nm UV light for 30 min. To the solution were added freshly prepared tris-(2-carboxyethyl)phosphine (TCEP) until its concentration reached 1 mM, and a CuAAC reaction mixture to reach a final concentration of 1 mM CuSO4, 0.1 mM tris[(1-benzyl-1H-1,2,3-triazol-4-yl)methyl]amine (TBTA), and 0.5 mM biotin-PEG3-azide (for GTP-O probe labeled samples), or 0.5 mM biotin-DADPS-azide (for GTP-N probe labeled samples). The mixture was vortexed at room temperature for 2 hours and then precipitated in ice-cold methanol overnight.
The precipitated proteins were dissolved in 100 μL 4% SDS buffer (4% SDS, 150 mM NaCl, 50 mM HEPES, pH=7.4), and diluted with 900 μL SDS-free HEPES buffer (150 mM NaCl, 50 mM HEPES, pH=7.4). High-capacity streptavidin beads (50 μL per sample) were washed three times with 20 times volume of wash buffer (150 mM sodium chloride, 50 mM HEPES, pH=7.4) before adding to the samples. After incubation on a rotary shaker at room temperature for 2 hours, non-specifically bound proteins were washed away in a centrifugal filtration column using 1× PBS containing 1% SDS, 10× PBS, 1× PBS, water, and 50 mM ammonium bicarbonate solution with 8 M urea, each wash using 1 mL of solution for five times. The beads were transferred to a centrifuge tube using 50 mM ammonium bicarbonate solution containing 8 M urea and resuspended with 500 μL of this solution. The disulfide bonds were reduced by adding 20 mM TCEP and incubating at 37° C. for 1 hour, and then alkylated with 50 mM iodacetamide at room temperature in the dark for 30 minutes. After centrifugation at 3000 rpm for 2 minutes, the supernatant was gently removed. The beads were washed with 25 mM ammonium bicarbonate three times, resuspended in 100 μL 25 mM ammonium bicarbonate, and incubated with 1 μg of MS-grade trypsin (1 μg/μL) at 37° C. for 18 hrs.
The beads were washed with 200 μL of 25 mM ammonium bicarbonate solution, then centrifuged at 12000 rpm for 2 minutes to collect the supernatant. The procedure was repeated 6 times, and the supernatants were combined to obtain sample 1 (peptides without probe modification). For GTP-O probe labeled samples, the beads were resuspended in 200 μL of 70% acetonitrile solution containing 1% trifluoroacetic acid, vortexed for 5 minutes, then centrifuged at 12000 rpm for 2 minutes to collect the supernatant. The procedure was repeated 5 times, and the supernatants were combined to obtain sample 2 (containing probe-modified peptides). For GTP-N probe labeled samples, the beads were resuspended in 100 μL of 10% formic acid, incubated on a rotary shaker at room temperature for 30 minutes, then centrifuged at 12000 rpm for 2 minutes to collect the supernatant. The procedure was repeated 3 times, and the supernatants were combined. Trifluoroacetic acid was added to a final concentration of 1%, and incubated at 37° C. for 30 minutes to obtain sample 2. The peptide solutions were dried with a centrifugal concentrator and desalted using C18 tips, then frozen at −80° C. until LC-MS/MS detection. Samples were dissolved in 20 μL of pure water, 4 μL of sample 1 and 8 μL of sample 2 were injected for analysis.
An EASY-nLC 1200 liquid chromatography coupled with a Q-Exactive Orbitrap mass spectrometer was employed for LC-MS/MS analysis. A homemade C18 capillary column (inner diameter 75 μm, column length 18 cm) packed with Reprosil-Pur120 C18-AQ (Dr. maisch, particle size […]) was utilized as the separation column. The precolumn (inner diameter 150 μm, column length 4 cm) was packed with Reprosil-Pur120 C18-AQ (Dr. maisch, particle size 5 μm,). The mobile phase A was 0.1% formic acid, while mobile phase B was 0.1% formic acid in 80% acetonitrile, and the flow rate was 300 nL/min. […]

The mark [4] stands for this setting: three biological replicates, 0.1 mM probe, control probe = GTP-ctrl probe.

One compound from patent US20240400604A1, “NUCLEOSIDE TRIPHOSPHATE PHOTOAFFINITY PROBE, METHOD FOR PREPARING SAME, AND APPLICATIONS THEREOF” (SHANDONG UNIVERSITY, priority 2023, published 2024) can be followed below.

With `C#CCCC1(CCNP(=O)(O)OP(=O)(O)OP(=O)(O)OC[C@H]2O[C@@H](n3cnc4c(=O)[nH]c(N)nc43)C(O)[C@H]2O)N=N1` (stereo partly shown) [GTP-N probe], the “protein labeling (in-gel fluorescence)” value in data set [1] (0.1 mM probe, 1 mM MgCl2, FIG. 10a) is recorded as “stronger protein labeling compared to the GTP-O probe”. The “probe concentration at which cell lysate is effectively labeled” value in data set [1] (FIG. 9a (GTP-N probe), 365 nm UV, in-gel fluorescence) amounted to 50 µM. Besides, in data set [2], the “time after which probe decomposed” value turned out to be 0.5 h. Moreover, the “probe-modified sites on labeled proteins” value in data set [3] (LC-MS/MS of sample 2 (probe-modified peptides)) is reported as “several modified peptides of GTP-binding proteins were identified”. In addition, the “selectivity for annotated GTP-binding proteins” value in data set [3] (competition with GTP at 10 times probe concentration, LFQ, three biological replicates) was “better selectivity than the GTP-O probe”. In data set [3] (setting [4]), this compound had a GTP-binding proteins identified of 115 and a total proteins identified of 2461.
